Measured values: article PMC5404560, “Towards Selective Mycobacterial ClpP1P2 Inhibitors with Reduced Activity against the Human Proteasome” (Antimicrobial Agents and Chemotherapy, 2017)

Experiments:
[1] = Parallel artificial-membrane permeability assay (PAMPA); assay type: in vitro ADME; conditions: read-out: PAMPA Pe
Protocol: A parallel artificial-membrane permeability assay (PAMPA) and mouse liver microsome (MLM), human liver microsome (HLM), aqueous solubility, Log D, protein binding, and cytochrome P450 2D6 and 3A4 assays were carried out at Piramal Pharma Solutions.

[2] = tested on: Vero cells; assay: MTS cytotoxicity assay, Vero; assay type: cell-based; conditions: fold higher
Protocol: (§1) The MTS (Promega) reduction assay was used according to manufacturer's guidelines to assess Vero (ATCC […]) and HepG2 (ATCC HB-8065) cell viability. […] Carbonyl cyanide m-chlorophenylhydrazone (CCCP) was used as a cytotoxic positive control. Cytotoxicity was determined twice in independent experiments.

[3] = MTS cytotoxicity assay, Vero; assay type: cell-based; conditions: African green monkey; MTS assay; read-out: GI50, Vero cells
Protocol: as §1

O=C(N[C@@H](Cc1ccccn1)C(=O)N[C@@H](CCc1ccccc1)B(O)O)c1cnccn1 [Compound 58, ((R)-3-phenyl-1-((S)-2-(pyrazine-2-carboxamido)-3-(pyridin-2-yl)propanamido)propyl)boronic acid]
Papp [1]: 3.5 ×10⁻⁶ cm/s
GI50 relative to M. tuberculosis growth-inhibitory potency, Vero [2]: 200 fold
GI50 [3]: 500 µM
